# Measurements from patent US11698366B2, “Human tissue stem cell and use thereof” (KEIO UNIVERSITY, priority 2017, dated 2023).
# How the values were obtained:
# [1] = system: tumor derived from LGR5-iCT organoid; experiment: Tumor size of LGR5-iCT organoid xenograft measured regularly; format: in vivo, NOG mice
# Experimental: The LGR5-iCT organoid was xenografted under the renal capsule of NOG mice (7-12 weeks old, male) by the same method as Experimental Example 2. Subsequently, after a tumor was formed, the AP20187 was administered to mice daily for 5 days. In addition, control mice to which only a solvent was administered daily for 5 days. Thereafter, a tumor size of each mouse was measured regularly.
# In addition, FIG. 6 is a graph showing a result obtained by measuring the size of a tumor of each of a mouse (Dimerizer) to which the AP20187 is administered and the control mouse (Vehicle), regularly. As a result, it was confirmed that the tumor size was reduced by the administration of the AP20187.
# In addition, the inventors examined the expression of the LGR5 gene in the tumor tissue after the administration of the AP20187. […] In addition, it was also clear that a re-increase of the tumor size corresponds to re-expression of the LGR5 gene.
# [2] = system: LGR5-positive cancer stem cell; experiment: Tumor tissue sections of LGR5-iCT organoid xenograft (tdTomato fluorescence, KRT20 immunostaining); format: in vivo, NOG mice; details: tumor section on the 5th day from start of administration, daily for 5 days
# Text: First, an IRES-iCaspase9-T2A-tdTomato construct was introduced into the LGR5 gene locus of the cultured organoid derived from colon cancer by the same method as in Experimental Example 1. Hereinafter, these organoids may be referred to as “LGR5-iCT organoids” in some cases.
# iCaspase 9 is a drug-induced suicide gene. The iCaspase 9 has no activity in a monomer, but forms a dimer in the presence of AP20187 (dimerizer, APExBIO) to induce apoptosis. Also, TdTomato is a kind of red fluorescent protein (RFP).
# FIG. 4 is a diagram illustrating a structure of the completed LGR5 gene locus and behavior of the drug-induced suicide gene. […] Therefore, it is possible to confirm the presence of the LGR5-positive cell by observing the fluorescence of the tdTomato. […] As a result, the fluorescence of the tdTomato becomes not observed.
# The LGR5-iCT organoid was xenografted under the renal capsule of NOG mice (7-12 weeks old, male) by the same method as Experimental Example 2. […] Thereafter, a tumor size of each mouse was measured regularly.
# FIGS. 5 (a) and 5(b) show fluorescence micrographs of a result obtained by extracting a tumor of each mouse on the 5th day from the start of administration of the AP20187 to prepare a tissue section and detecting the fluorescence of the tdTomato and KRT20 as a differentiation marker by immunostaining. […]
# cancer stem cell = experiment: LGR5-iCT/CMV-GFP organoid screening, tdTomato fluorescence; format: cell-based, human; details: final concentration shown in FIG. 8; DMSO control
# Text: In addition, Irinotecan, Cetuximab, and Oxaliplatin are existing anticancer drugs. In addition, “DMSO” refers to dimethyl sulfoxide added to the medium instead of the anticancer drug as a control.
# cancer cell = experiment: LGR5-iCT/CMV-GFP organoid screening, GFP fluorescence; format: cell-based, human; details: final concentration shown in FIG. 8; DMSO control
# Text: A CMV-GFP construct was further introduced into the LGR5-iCT organoid prepared in Experimental Example 4. In the CMV-GFP construct, a GFP gene was linked downstream of the CMV promoter, which is the forced expression promoter. Therefore, regardless of whether or not the LGR5 gene was expressed, the GFP gene was expressed in all cells and emitted fluorescence of the GFP protein. Hereinafter, these organoids may be referred to as “LGR5-iCT/CMV-GFP organoids” in some cases.
# In the LGR5-iCT/CMV-GFP organoid, survival activity of the cancer cell can be observed by fluorescence of GFP, and survival activity of the cancer stem cell can be observed by fluorescence of tdTomato.
# Using the LGR5-iCT/CMV-GFP organoid, high-throughput screening of existing anticancer drugs used for the treatment of colon cancer was performed, and the effects on the cancer cells and the cancer stem cells were examined.
# FIG. 8 is a micrograph of an organoid showing a typical result. In FIG. 8, “BRIGHT FIELD” indicates a bright field observation image. “CMV-GFP” indicates a fluorescence micrograph obtained by observing GFP fluorescence”. “LGR5-tdTomato” indicates a fluorescence micrograph obtained by observing tdTomato fluorescence. “Merge” indicates the result obtained by synthesizing the bright-field observation image, the GFP fluorescence micrograph, and the micrograph of tdTomato fluorescence. […]
Structure (SMILES),tumor size ([1]; after administration daily for 5 days),"tumor growth ([1]; continuous cancer stem cell treatment, tumor not completely cured)","expression of the LGR5 gene in the tumor tissue after administration ([1]; expression once disappeared, corresponds to re-increase of tumor size)","tumor size, eventually ([1]; later after the end of the 5-day administration)",effect on LGR5-negative cell [2],effect on LGR5-positive cancer stem cell (apoptosis) [2],effect against the cancer stem cell (tdTomato fluorescence) (cancer stem cell),effect against the cancer cell (GFP fluorescence) (cancer cell)
CC[C@H](C(=O)N1CCCC[C@H]1C(=O)O[C@H](CCc1ccc(OC)c(OC)c1)c1cccc(OCC(=O)NCC(CNC(=O)COc2cccc([C@@H](CCc3ccc(OC)c(OC)c3)OC(=O)[C@@H]3CCCCN3C(=O)[C@@H](CC)c3cc(OC)c(OC)c(OC)c3)c2)CN(C)C)c1)c1cc(OC)c(OC)c(OC)c1 [AP20187],reduced,could suppress tumor growth,recognized again,increased again,remained intact,completely died,–,–
CCc1c2c(nc3ccc(OC(=O)N4CCC(N5CCCCC5)CC4)cc13)-c1cc3c(c(=O)n1C2)COC(=O)[C@]3(O)CC [irinotecan],–,–,–,–,–,–,not effective,showed a growth suppression effect
O=C1[O][Pt]2([NH][C@@H]3CCCC[C@H]3[NH]2)[O]C1=O [oxaliplatin],–,–,–,–,–,–,kills,kills
